Values quoted from earlier work in patent US20260335255A1, “PHARMACEUTICAL COMPOSITIONS” (priority 2022, published 2026).
In brackets after ≈: the same amount, converted by molar mass. Where a name gives a salt, the structure may show the parent alone.

Key:
patients with depression = conditions: 0.5 mg/kg; 40 min infusion
patients [1] = conditions: for side effects: b8: single subanesthetic dose
patients [2] = conditions: anesthetic use; Pediatric Anesthesia 2005 15: 91-97

SMILES	concentration needed for therapeutic efficacy in patients with depression (patients with depression) [ng/mL]	solubility in water [mg/mL]	effect on memory (patients [1]; background)	side effects (patients [1]; background)	depressive symptoms (patients [1]; single subanesthetic dose)	thought disorder and withdrawal-retardation (healthy volunteers)	duration of action compared with racemic ketamine (patients [2])
CNC1(c2ccccc2Cl)CCCCC1=O (racemic) [Ketamine]	185	200 (≈ 841 mM)	direct effects on free recall and recognition memory	transient dissociation and psychotomimetic side effects and hemodynamic changes	reduces depressive symptoms	significant levels of thought disorder and withdrawal-retardation	–
CN[C@]1(c2ccccc2Cl)CCCCC1=O [S(+) ketamine]	–	–	–	–	–	–	significantly shorter acting than racemic ketamine
CNC1(c2ccccc2Cl)CCCCC1=O (centres unmarked) [ketamine hydrochloride, Ketamine Hydrochloride]	–	–	–	blurred vision, double vision, dream-like feeling, dizziness, drowsiness, jerky muscle movements, loss of appetite, nausea, vomiting, sleep problems such as insomnia	–	–	–
